Measurements published in patent publication US20100098631A1, “Novel-2-Heteroaryl Substituted Indoles 695” (ASTRAZENECA AB, priority 2007, published 2010).

Each compound was assayed against T1, synthetic Aβ 1-40 (Homo sapiens, UniProt P05067) (assay: Competition binding assay ([3H]PIB as radioligand)). Details: [3H]PIB 2.7 nM as radioligand, synthetic Aβ 1-40, phosphate buffer pH 7.5, 30 min room temperature; read-out: IC50 in the competion binding assay.
T1 construct: using synthetic Aβ 1-40 in 2.7 nM of [^3H]PIB
T1 sequence (P05067 672-711 limits assumed): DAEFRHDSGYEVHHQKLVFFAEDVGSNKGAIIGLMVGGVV
Method: Competition binding was performed in 384-well FB filter plates using synthetic Aβ 1-40 in 2.7 nM of [^3H]PIB (or another ^3H-labeled radioligand when so mentioned) in phosphate buffer at pH 7.5, by adding various concentrations of non-radioactive compounds originally dissolved in DMSO. The binding mixture was incubated for 30 min at room temperature, followed by vacuum filtration, and subsequently by washing twice with 1% Triton-X100. Scintillation fluid was thereafter added to the collected Aβ 1-40 on the filter plate, and the activity of the bound remaining radioligand ([^3H]PIB or another ^3H-labeled radioligand) was measured using 1450 Microbeta from PerkinElmer. Specific binding was determined according to the competion binding assay described herein. The determined IC50's in the competion binding assays (using [^3H]PIB as radioligand) of compounds of the present invention are shown in Table 1.
Compound `CNc1ccc(-c2cc3cc(O)ccc3[nH]2)cn1` [2-[6-(Methylamino)pyridin-3-yl]-1H-indol-5-ol] has an IC50 of 736 nM.
`NC(=O)c1ccc(-c2cc3ccccc3[nH]2)cn1` [5-(1H-indol-2-yl)pyridine-2-carboxamide, 5-(1H-Indol-2-yl)pyridine-2-carboxamide] was tested, and the IC50 was 143 nM.
For `CNc1ccc(-c2cc3cc(F)ccc3[nH]2)cn1` [5-(5-Fluoro-1H-indol-2-yl)—N-methylpyridin-2-amine], the IC50 was 152 nM.
`CNc1ccc(-c2cc3cc(OC)ccc3[nH]2)cn1` [5-(5-Methoxy-1H-indol-2-yl)—N-methylpyridin-2-amine] gave an IC50 of 201 nM.
Work on `COC(=O)c1ccc(-c2cc3cc(O)ccc3[nH]2)nc1` [6-(5-Hydroxy-1H-indol-2-yl)-Nicotinic Acid Methyl Ester] yielded an IC50 of 140 nM.
For `COC(=O)c1ccc(-c2cc3cc(OC)ccc3[nH]2)nc1` [Methyl 6-(5-methoxy-1H-indol-2-yl)-nicotinate], the IC50 was 141 nM.
In the case of `CC(C)(C)OC(=O)n1c(-c2ccc(C(N)=O)nc2)cc2cc(F)ccc21` [tert-Butyl 2-(6-carbamoylpyridin-3-yl)-5-fluoro-1H-indole-1-carboxylate], the IC50 is reported as 5370 nM.
